Assay results reported in patent US12312599B2, “Methods, compositions, and kits for producing beige adipocytes and treating metabolic disorders” (MaineHealth, priority 2018, dated 2025).

Columns and labels:
[1] = system: Primary human subcutaneous white adipocytes; assay: UCP1 qPCR in primary human subcutaneous white adipocytes; type: cell-based; settings: treated with SB
Text: All primary cell lines isolated from WAT were generated from outgrowth of the stromal vascular fraction and purchased from commercial vendors. All cell lines were validated to be at least 95% positive for adipogenic precursors as determined by flow cytometry for PDGFRα. Human white preadipocytes (HWP-c) cells, purchased from PromoCell (C-12730), were isolated from subcutaneous adipose tissue of a person with a BMI of 28. Normal human preadipocytes, purchased from Lonza (PT-5020), were isolated from subcutaneous adipose tissue of a person with a BMI of 21. Type 2 diabetic human preadipocytes, purchased from Lonza (PT-5022), were isolated from subcutaneous adipose tissue of a person with a BMI of 42.1. Type 2 diabetic human preadipocytes, purchased from Zenbio (OPD-F-3), were isolated from omental adipose tissue of a person with a BMI of 38.6. Type 2 diabetic human preadipocytes, purchased from Zenbio (SPD-F-3), were isolated from subcutaneous adipose tissue of a person with a BMI of 53.5. Cryopreserved cells were thawed and seeded in a 100×20 mm TC dish and treated as passage 0. Primary adipogenic precursors were expanded in DMEM containing 10% fetal bovine serum. Medium was changed daily and cells were cultured at 37° C. in a 5% CO2 incubator. Upon 80% confluence, cells are split and passaged at a ratio of 1:6 (Passage 1). […]

SMAD2 = assay: Western blot of phosphorylated SMAD2 in FD-MSCs; type: cell-based, human; settings: SB pretreatment 2 days in MesenCult-ACF
Protocol: All assays were performed between 7 and 15 passages. For osteocyte differentiation, mature MSCs were grown in 24 well culture plates to 100% confluency in MesenCult-ACF and induced to differentiate in OsteoLife Complete Osteogenesis Medium (Lifeline Cell Technology) for 21 days prior to staining with Lifeline Alizarin Red Stain to visualize calcium deposition. For chondrocyte differentiation. For beige adipogenic precursor generation, cells were grown in 24 well culture plates to 90% confluence and treated with 5 uM SB413542 (Sigma) and 10 nM human IL-4 (Peprotech) for 2 days. For beige adipogenic induction, adipogenic precursors are differentiated for 3 days with adipogenic medium consisting of T3 (2 nM), insulin (170 nM), rosiglitazone (1 μM), SB413542 (5 uM), IBMX (0.5 mM), dexamethasone (5 μM) and indomethacin (125 μM) in EGM-2 medium (Lonza) supplemented with the BulletKit minus FGF2 (modified from^33). Thereafter, cells are maintained in adipogenic medium without IBMX, dexamethasone and indomethacin. The medium was changed every 3 days and adipocytes were fully differentiated by 9-12 days as determined by lipid accumulation and peak expression of UCP1. […] SWATH runs were extracted and analyzed using PeakView software and MarkerView software was utilized to find statistically relevant relationships through t test comparisons. […]

For `NC(=O)c1ccc(-c2nc(-c3ccc4c(c3)OCO4)c(-c3ccccn3)[nH]2)cc1` [SB, SB431542], the UCP1 expression [1] was “enhanced expression” and the “constitutive phosphorylation of SMAD2” value (SMAD2) was “inhibited”.
